The values that follow come from US8748428B2, “Use of a PKC inhibitor” (Novartis AG, priority 2010, dated 2014).

What all share (type): cell-based
For one assay, the system named is OCI-Ly3 cells. Briefly: Growth inhibition, CellTiter-Glo, 5 days. The conditions noted are these: Homo sapiens, OCI-Ly3, 120 h; ABC DLBCL, CARD11 mutation; 5 days treatment; read-out: growth inhibitory IC50, OCI-Ly3. The text has this: (§1) Two pharmacological PKC inhibitors: (i) the pan-PKC inhibitor, Sotrastaurin, also known as AEB071, and (ii) the PKCa/b-selective compound, 3-[2-chloro-7-[(dimethylamino)methyl]-1-naphthalenyl]-4-[7-[2-(2-methoxyethoxy)ethoxy]-1H-indol-3-yl]-1H-pyrrole-2,5-dione (referred to herein as “Compound B”), were used to evaluate the proliferation of several diffuse large B cell lymphoma (DLBCL) lines. The IKKb-selective inhibitors N-(6-chloro-7-methoxy-9H-β-carbolin-8-yl)-2-methylnicotinamide (referred to herein as “MLN120B”) and N-[(2R,6R)-2,6-dimethyl-4-piperidinyl]-4-(7-fluoro-1H-indol-3-yl)-2-pyrimidinamine (referred to herein as “Compound A”) were used as control compounds. ABC DLBCL cell lines (OCI-LY3, OCI-LY10, HBL1, U2932, TMD8, Su-DHL2) and GC DLBCL cell lines (Su-DHL4, DB, K-422) were treated for 5 days with PKC inhibitors (A) Sotrastaurin (AEB071) or (B) Compound B; IKKb inhibitors (C) MLN120B or (D) Compound A. Cells were plated in 96-well plates (Corning, #3358) at 5000 cells/well in 100 μL and treated with DMSO or inhibitors at concentrations ranging from 160 nM to 20 μM (2-fold dilutions). Following 5 days of treatment, cells were lysed with CellTiter-Glo® Luminescent Cell Viability Assay reagent (Promega, G7573), lysates were transferred to opaque 96-well plates (Corning, #3971), and luminescence signal was read using the Envision. Percent growth was calculated relative to median DMSO signal.
(§2) While all ABC DLBCL cell lines were sensitive to IKK inhibitors, their response to PKC inhibitors varied strongly (Table 1A below). The cell lines that are insensitive to PKC inhibitors, OCI-Ly3 and Su-DHL2, have reported mutations in CARD11 and A20, respectively. […] The fact that these oncogenic lesions are thought to function downstream of PKCβ in CBM-NFkB signaling provides a molecular rationale for their insensitivity. […] See, Compagno, M., et al, “Mutations of multiple genes cause deregulation of NF-κB in diffuse large B-cell lymphoma” Nature, 459 (7247), 717-722 (2009)). […] Tables 1A and 1B below show the growth inhibitory IC50 values, which were determined by measuring ATP concentration (Cell Titer Glo), for the indicated compounds in the indicated cell lines. IC50 values were determined as the concentration of compound that leads to 50% reduction of cell growth.
On the technique in general: In ATP-based viability assays light output follows the ATP content of the culture.

In the next assay the test system is U2392 cells. Briefly: Growth inhibition, CellTiter-Glo, 5 days. The note with it: 120 h; ABC DLBCL, TAK1 mutation; 5 days treatment; read-out: growth inhibitory IC50, U2392.
Excerpt: as §1, §2

Another assay concerns TMD8 cells. Briefly: Growth inhibition, CellTiter-Glo, 5 days. The conditions noted are these: Homo sapiens, TMD8, 120 h; ABC DLBCL, CD79B mutation; 5 days treatment; read-out: growth inhibitory IC50, TMD8.
Excerpt: as §1, §2

The next assay deals with OCI-Ly10 cells. Kind of assay: Growth inhibition, CellTiter-Glo, 5 days. The conditions noted are these: Homo sapiens, OCI-Ly10, 120 h; ABC DLBCL, CD79A mutation; 5 days treatment; read-out: growth inhibitory IC50, OCI-Ly10.
Excerpt: as §1, §2

A further assay deals with K422 cells. Briefly: Growth inhibition, CellTiter-Glo, 5 days. The note with it: 120 h; GC DLBCL, no NFkB mutation; 5 days treatment; read-out: growth inhibitory IC50, K422.
Excerpt: as §1, §2

The next assay relates to Su-DHL4 cells. Kind of assay: Growth inhibition, CellTiter-Glo, 5 days. The note with it: Homo sapiens, SU-DHL-4, 120 h; GC DLBCL, no NFkB mutation; 5 days treatment; read-out: growth inhibitory IC50, Su-DHL4.
Excerpt: as §1, §2

The next assay concerns HBL1 cells. Kind of assay: Growth inhibition, CellTiter-Glo, 5 days. The conditions noted are these: HBL1, 120 h; ABC DLBCL, CD79B mutation; 5 days treatment; read-out: growth inhibitory IC50, HBL1.
Excerpt: as §1, §2

The subject of the next assay is DB cells. Briefly: Growth inhibition, CellTiter-Glo, 5 days. The note with it: Homo sapiens, 120 h, GC DLBCL, no NFkB mutation, 5 days treatment, read-out: growth inhibitory IC50, DB.
Excerpt: as §1, §2

The test system of the next assay is Su-DHL2 cells. Kind of assay: Growth inhibition, CellTiter-Glo, 5 days. The note with it: Homo sapiens, SU-DHL-2, 120 h; ABC DLBCL, A20 mutation; 5 days treatment; read-out: growth inhibitory IC50, Su-DHL2.
Excerpt: as §1, §2

The subject of assay [1] is IL-6 secretion in TMD8 cells. Briefly: IL-6 secretion (Quantikine ELISA). The conditions noted are these: Homo sapiens; TMD8, ELISA of supernatant, 48 hours. The protocol: (§3) The fact that IL-6 is secreted from cells allowed for monitoring of IL-6 levels in cell supernatants. IL-6 secretion was determined by Quantikine ELISA using supernatant from treated cells. Cells were washed and plated at 100,000 cells/well in 100 ul in fresh media in round-bottom 96-well plates (Corning, #3358). The cells were then treated with DMSO or inhibitors at concentrations ranging from 80 nM to 10 uM (2-fold dilutions), and incubated at 37° C. for 48 hours. Then the conditioned media was transferred to v-bottom 96-well plates (Nunc, #12565436). The level of IL-6 secretion was determined by the Quantkine colorimetric ELISA kit from (R & D Systems, #D6050), according to the manufacturer's instructions. For the IL-6 ELISA, the conditioned media was diluted 1:2 with fresh media (except ion: the HBL1 conditioned media was not diluted, it was used 1:1). In FIG. 2, IL-6 secretion for each dose is expressed as a percentage of IL-6 secretion from cells treated with DMSO.

Assay [2] deals with IL-6 secretion in HBL1 cells. Kind of assay: IL-6 secretion (Quantikine ELISA). The conditions noted are these: HBL1, ELISA of supernatant, 48 hours. As to the method:
as §3
(In general: ELISA stands for enzyme-linked immunosorbent assay.)

Turning to `CN1CCN(c2nc(C3=C(c4c[nH]c5ccccc45)C(=O)NC3=O)c3ccccc3n2)CC1` [AEB071, 3-(1H-Indol-3-yl)-4-[2-(4-methylpiperazin-1-yl)quinazolin-4-yl]-1H-pyrrole-2,5-dione], the IC50 (as a rule, the midpoint of a concentration-inhibition curve) is over 20000 nM in the assay with OCI-Ly3 cells; 5000 nM in the assay on U2392 cells; 200 nM with TMD8 cells; 1300 nM in the assay on OCI-Ly10 cells; over 20000 nM in the assay on K422 cells; over 20000 nM in the assay on Su-DHL4 cells. The IC50 is 500 nM in the assay on HBL1 cells; over 20000 nM in the assay on DB cells; over 20000 nM with Su-DHL2 cells; under 200 nM in assay [1]; under 200 nM in [2].
